Data from PubChem BioAssay (NCI).
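All cell lines were grown in 96-well plates and treated with compound for 48 hours. At the GI50, growth is halved. TGI: concentration producing complete growth inhibition.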

Experiments:
Assay in all cases: NCI tumour cell line growth inhibition, 48 h
OVCAR-8 ovarian = test system: OVCAR-8 ovarian
SK-MEL-28 melanoma = test system: SK-MEL-28 melanoma
HCT-116 colon = test system: HCT-116 colon
HCT-15 colon = test system: HCT-15 colon
KM12 colon = test system: KM12 colon
SK-MEL-2 melanoma = test system: SK-MEL-2 melanoma
T-47D breast = test system: T-47D breast
EKVX NSCLC = test system: EKVX NSCLC
IGROV1 ovarian = test system: IGROV1 ovarian
HOP-62 NSCLC = test system: HOP-62 NSCLC
HS 578T breast = test system: HS 578T breast
OVCAR-4 ovarian = test system: OVCAR-4 ovarian
PC-3 prostate = test system: PC-3 prostate
SW-620 colon = test system: SW-620 colon
SK-MEL-5 melanoma = test system: SK-MEL-5 melanoma
UO-31 renal = test system: UO-31 renal
SNB-19 CNS = test system: SNB-19 CNS
A549 NSCLC = test system: A549 NSCLC
MALME-3M melanoma = test system: MALME-3M melanoma
SF-295 CNS = test system: SF-295 CNS
HOP-92 NSCLC = test system: HOP-92 NSCLC
HCC-2998 colon = test system: HCC-2998 colon
NCI-H522 lung = test system: NCI-H522 lung
SN12C renal = test system: SN12C renal
HT29 colon = test system: HT29 colon
BT-549 breast = test system: BT-549 breast
CAKI-1 renal = test system: CAKI-1 renal
UACC-257 melanoma = test system: UACC-257 melanoma
RXF 393 renal = test system: RXF 393 renal
786-0 renal = test system: 786-0 renal
OVCAR-5 ovarian = test system: OVCAR-5 ovarian
OVCAR-3 ovarian = test system: OVCAR-3 ovarian
ACHN renal = test system: ACHN renal
SK-OV-3 ovarian = test system: SK-OV-3 ovarian
DU-145 prostate = test system: DU-145 prostate
U251 CNS = test system: U251 CNS
NCI-H23 lung = test system: NCI-H23 lung
MCF7 breast = test system: MCF7 breast
NCI-H460 lung = test system: NCI-H460 lung
UACC-62 melanoma = test system: UACC-62 melanoma
RPMI-8226 leukemia = test system: RPMI-8226 leukemia
MDA-MB-435 = test system: MDA-MB-435
NCI/ADR-RES ovarian = test system: NCI/ADR-RES ovarian
COLO 205 colon = test system: COLO 205 colon
MDA-MB-231 breast = test system: MDA-MB-231 breast
SF-268 CNS = test system: SF-268 CNS
TK-10 renal = test system: TK-10 renal
SF-539 CNS = test system: SF-539 CNS
LOX IMVI melanoma = test system: LOX IMVI melanoma
SNB-75 CNS = test system: SNB-75 CNS
A498 renal = test system: A498 renal
NCI-H226 lung = test system: NCI-H226 lung
SR leukemia = test system: SR leukemia
M14 melanoma = test system: M14 melanoma
K-562 leukemia = test system: K-562 leukemia
HL-60(TB) leukemia = test system: HL-60(TB) leukemia
CCRF-CEM leukemia = test system: CCRF-CEM leukemia

COc1nc(=O)n(C2C=CC(=O)O2)cc1F (configuration not stated)
GI50 (OVCAR-8 ovarian): 23.9 µM
TGI (OVCAR-8 ovarian): > 100 µM
GI50 (SK-MEL-28 melanoma): 6.92 µM
TGI (SK-MEL-28 melanoma): 20.1 µM
GI50 (HCT-116 colon): 2.05 µM
TGI (HCT-116 colon): 4.81 µM
GI50 (HCT-15 colon): 2.59 µM
TGI (HCT-15 colon): 12 µM
GI50 (KM12 colon): 11.7 µM
TGI (KM12 colon): 23.9 µM
GI50 (SK-MEL-2 melanoma): 16.5 µM
TGI (SK-MEL-2 melanoma): 54.1 µM
GI50 (T-47D breast): 2.24 µM
TGI (T-47D breast): 7.24 µM
GI50 (EKVX NSCLC): 11.3 µM
TGI (EKVX NSCLC): > 100 µM
GI50 (IGROV1 ovarian): 8.69 µM
TGI (IGROV1 ovarian): 23.2 µM
GI50 (HOP-62 NSCLC): 29.7 µM
TGI (HOP-62 NSCLC): 81.2 µM
GI50 (HS 578T breast): 13.4 µM
TGI (HS 578T breast): 40.8 µM
GI50 (OVCAR-4 ovarian): 3.09 µM
TGI (OVCAR-4 ovarian): 15.5 µM
GI50 (PC-3 prostate): 19.8 µM
TGI (PC-3 prostate): 62.4 µM
GI50 (SW-620 colon): 4.19 µM
TGI (SW-620 colon): 15.8 µM
GI50 (SK-MEL-5 melanoma): 4.91 µM
TGI (SK-MEL-5 melanoma): 18.6 µM
GI50 (UO-31 renal): 5.18 µM
TGI (UO-31 renal): 18.3 µM
GI50 (SNB-19 CNS): 22.3 µM
TGI (SNB-19 CNS): 57 µM
GI50 (A549 NSCLC): 25.9 µM
TGI (A549 NSCLC): 87.3 µM
GI50 (MALME-3M melanoma): 1.8 µM
TGI (MALME-3M melanoma): 6.95 µM
GI50 (SF-295 CNS): 22.9 µM
TGI (SF-295 CNS): 66.1 µM
GI50 (HOP-92 NSCLC): 1.85 µM
TGI (HOP-92 NSCLC): 11.7 µM
GI50 (HCC-2998 colon): 12.9 µM
TGI (HCC-2998 colon): 25.5 µM
GI50 (NCI-H522 lung): 2.33 µM
TGI (NCI-H522 lung): 8.72 µM
GI50 (SN12C renal): 11.6 µM
TGI (SN12C renal): 25.7 µM
GI50 (HT29 colon): 4.63 µM
TGI (HT29 colon): 16.7 µM
GI50 (BT-549 breast): 8.29 µM
TGI (BT-549 breast): 24.1 µM
GI50 (CAKI-1 renal): 2.67 µM
TGI (CAKI-1 renal): 8.7 µM
GI50 (UACC-257 melanoma): 11.6 µM
TGI (UACC-257 melanoma): 31.4 µM
GI50 (RXF 393 renal): 1.94 µM
TGI (RXF 393 renal): 5.03 µM
GI50 (786-0 renal): 12.1 µM
TGI (786-0 renal): 25.1 µM
GI50 (OVCAR-5 ovarian): 15.2 µM
TGI (OVCAR-5 ovarian): 28.6 µM
GI50 (OVCAR-3 ovarian): 3.26 µM
TGI (OVCAR-3 ovarian): 11.2 µM
GI50 (ACHN renal): 2.11 µM
TGI (ACHN renal): 5.45 µM
GI50 (SK-OV-3 ovarian): 25.8 µM
TGI (SK-OV-3 ovarian): 62.3 µM
GI50 (DU-145 prostate): 11.1 µM
TGI (DU-145 prostate): 28.2 µM
GI50 (U251 CNS): 14.6 µM
TGI (U251 CNS): 29.1 µM
GI50 (NCI-H23 lung): 8.06 µM
TGI (NCI-H23 lung): 25.5 µM
GI50 (MCF7 breast): 2.3 µM
TGI (MCF7 breast): 10.9 µM
GI50 (NCI-H460 lung): 12.5 µM
TGI (NCI-H460 lung): 28.7 µM
GI50 (UACC-62 melanoma): 5.53 µM
TGI (UACC-62 melanoma): 18.7 µM
GI50 (RPMI-8226 leukemia): 3.26 µM
TGI (RPMI-8226 leukemia): 13.4 µM
GI50 (MDA-MB-435): 5.23 µM
TGI (MDA-MB-435): 27.6 µM
GI50 (NCI/ADR-RES ovarian): 10.1 µM
TGI (NCI/ADR-RES ovarian): 37.4 µM
GI50 (COLO 205 colon): 1.71 µM
TGI (COLO 205 colon): 3.62 µM
GI50 (MDA-MB-231 breast): 12.7 µM
TGI (MDA-MB-231 breast): 25.9 µM
GI50 (SF-268 CNS): 15.5 µM
TGI (SF-268 CNS): 37.3 µM
GI50 (TK-10 renal): 2.64 µM
TGI (TK-10 renal): 12.2 µM
GI50 (SF-539 CNS): 2.22 µM
TGI (SF-539 CNS): 5.77 µM
GI50 (LOX IMVI melanoma): 10.9 µM
TGI (LOX IMVI melanoma): 22.9 µM
GI50 (SNB-75 CNS): 14.3 µM
TGI (SNB-75 CNS): 43.1 µM
GI50 (A498 renal): 16.2 µM
TGI (A498 renal): 38.1 µM
GI50 (NCI-H226 lung): 16.9 µM
TGI (NCI-H226 lung): 56.6 µM
GI50 (SR leukemia): 1.87 µM
TGI (SR leukemia): 5.86 µM
GI50 (M14 melanoma): 5.82 µM
TGI (M14 melanoma): 20.6 µM

c1ccc(C(C(=Nc2ccc(Cc3ccc(N=C(C(c4ccccc4)c4ccccc4)N4CC4)cc3)cc2)N2CC2)c2ccccc2)cc1
TGI (OVCAR-8 ovarian): 22.5 µM
TGI (SK-MEL-28 melanoma): 21.4 µM
TGI (HCT-116 colon): > 100 µM
TGI (HCT-15 colon): 21.7 µM
TGI (KM12 colon): 24.5 µM
TGI (SK-MEL-2 melanoma): 24.6 µM
TGI (T-47D breast): 16.5 µM
TGI (K-562 leukemia): 17.6 µM
TGI (EKVX NSCLC): 25.9 µM
TGI (IGROV1 ovarian): 2.41 µM
TGI (HOP-62 NSCLC): 33 µM
TGI (HS 578T breast): 35.7 µM
TGI (PC-3 prostate): 22.6 µM
TGI (SW-620 colon): 20.1 µM
TGI (SK-MEL-5 melanoma): 20.1 µM
TGI (UO-31 renal): 14.8 µM
TGI (HL-60(TB) leukemia): 18.4 µM
TGI (SNB-19 CNS): 27.7 µM
TGI (A549 NSCLC): 22.3 µM
TGI (MALME-3M melanoma): 38.8 µM
TGI (SF-295 CNS): 27.5 µM
TGI (HCC-2998 colon): 23.6 µM
TGI (NCI-H522 lung): 19.8 µM
TGI (SN12C renal): 32.3 µM
TGI (HT29 colon): 15.9 µM
TGI (BT-549 breast): 24.7 µM
TGI (CAKI-1 renal): 24.1 µM
TGI (UACC-257 melanoma): 25.6 µM
TGI (RXF 393 renal): 16.1 µM
TGI (CCRF-CEM leukemia): 49.8 µM
TGI (786-0 renal): 65.5 µM
TGI (OVCAR-5 ovarian): 24.5 µM
TGI (OVCAR-3 ovarian): 24.6 µM
TGI (ACHN renal): 21.3 µM
TGI (SK-OV-3 ovarian): 11.1 µM
TGI (DU-145 prostate): 28 µM
TGI (U251 CNS): 30.9 µM
TGI (NCI-H23 lung): 30.8 µM
TGI (MCF7 breast): 15.4 µM
TGI (NCI-H460 lung): 13.4 µM
TGI (UACC-62 melanoma): 21.7 µM
TGI (RPMI-8226 leukemia): 39.5 µM
TGI (MDA-MB-435): 21.1 µM
TGI (NCI/ADR-RES ovarian): 24.2 µM
TGI (COLO 205 colon): 16.7 µM
TGI (MDA-MB-231 breast): 29.2 µM
TGI (SF-268 CNS): 21.8 µM
TGI (TK-10 renal): 34.5 µM
TGI (SF-539 CNS): 37.8 µM
TGI (LOX IMVI melanoma): 18.9 µM
TGI (A498 renal): 29.1 µM
TGI (NCI-H226 lung): 38.3 µM
TGI (SR leukemia): 15.7 µM
TGI (M14 melanoma): 70 µM
